From ChEMBL document CHEMBL3991601, “The target landscape of clinical kinase drugs” (Science, 2017)
The source made the active and inactive calls.

Key:
[1] = target: RAC-gamma serine/threonine-protein kinase (Homo sapiens, UniProt Q9Y243)
[2] = target: Mitogen-activated protein kinase 7 (Homo sapiens, UniProt Q13164)
[3] = target: Cyclin-dependent kinase 12 (Homo sapiens, UniProt Q9NYV4)
[4] = target: T1, Cysteine--tRNA ligase, cytoplasmic (Homo sapiens, UniProt P49589)
T1 sequence (P49589 whole entry): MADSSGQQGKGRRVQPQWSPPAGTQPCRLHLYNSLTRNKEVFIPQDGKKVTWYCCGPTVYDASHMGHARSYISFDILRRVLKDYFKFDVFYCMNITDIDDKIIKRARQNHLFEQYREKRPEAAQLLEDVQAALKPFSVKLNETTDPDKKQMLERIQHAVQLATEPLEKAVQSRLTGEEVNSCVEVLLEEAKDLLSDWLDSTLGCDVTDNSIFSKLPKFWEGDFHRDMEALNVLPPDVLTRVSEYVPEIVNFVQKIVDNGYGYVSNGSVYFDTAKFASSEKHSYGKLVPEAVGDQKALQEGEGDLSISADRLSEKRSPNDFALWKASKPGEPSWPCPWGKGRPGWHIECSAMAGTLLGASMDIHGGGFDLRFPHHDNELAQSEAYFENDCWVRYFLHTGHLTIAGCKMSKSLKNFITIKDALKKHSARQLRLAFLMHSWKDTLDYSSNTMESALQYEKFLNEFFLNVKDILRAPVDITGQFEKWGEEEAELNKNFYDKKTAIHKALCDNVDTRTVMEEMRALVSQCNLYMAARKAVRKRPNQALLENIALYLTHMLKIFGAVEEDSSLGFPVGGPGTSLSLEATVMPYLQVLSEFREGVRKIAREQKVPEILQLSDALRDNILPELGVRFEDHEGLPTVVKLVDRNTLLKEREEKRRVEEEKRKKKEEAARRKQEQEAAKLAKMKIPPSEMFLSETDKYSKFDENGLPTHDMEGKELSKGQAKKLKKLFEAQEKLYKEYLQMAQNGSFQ

[5] = target: T2, Mitogen-activated protein kinase 15 (Homo sapiens, UniProt Q8TD08)
T2 sequence (Q8TD08 whole entry): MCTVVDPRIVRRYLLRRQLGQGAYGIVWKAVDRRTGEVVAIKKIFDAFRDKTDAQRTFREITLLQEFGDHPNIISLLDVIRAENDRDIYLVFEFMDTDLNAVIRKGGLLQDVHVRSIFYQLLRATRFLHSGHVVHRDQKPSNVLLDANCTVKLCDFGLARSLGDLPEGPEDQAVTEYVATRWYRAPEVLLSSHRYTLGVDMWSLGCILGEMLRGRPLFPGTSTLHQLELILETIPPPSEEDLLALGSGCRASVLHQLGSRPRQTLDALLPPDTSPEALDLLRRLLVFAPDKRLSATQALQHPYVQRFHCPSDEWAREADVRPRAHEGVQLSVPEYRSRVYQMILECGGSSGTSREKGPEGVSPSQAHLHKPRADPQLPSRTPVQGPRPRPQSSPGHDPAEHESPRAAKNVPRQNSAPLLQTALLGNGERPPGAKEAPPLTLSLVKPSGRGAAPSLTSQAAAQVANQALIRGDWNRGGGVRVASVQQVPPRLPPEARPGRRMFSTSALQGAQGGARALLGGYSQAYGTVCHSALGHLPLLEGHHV

Obg-like ATPase 1 = Obg-like ATPase 1 (Homo sapiens, UniProt Q9NTK5)
[6] = target: Mitogen-activated protein kinase 3 (Homo sapiens, UniProt P27361)
[7] = target: T3, Serine/threonine-protein kinase D2 (Homo sapiens, UniProt Q9BZL6)
T3 sequence (Q9BZL6 whole entry): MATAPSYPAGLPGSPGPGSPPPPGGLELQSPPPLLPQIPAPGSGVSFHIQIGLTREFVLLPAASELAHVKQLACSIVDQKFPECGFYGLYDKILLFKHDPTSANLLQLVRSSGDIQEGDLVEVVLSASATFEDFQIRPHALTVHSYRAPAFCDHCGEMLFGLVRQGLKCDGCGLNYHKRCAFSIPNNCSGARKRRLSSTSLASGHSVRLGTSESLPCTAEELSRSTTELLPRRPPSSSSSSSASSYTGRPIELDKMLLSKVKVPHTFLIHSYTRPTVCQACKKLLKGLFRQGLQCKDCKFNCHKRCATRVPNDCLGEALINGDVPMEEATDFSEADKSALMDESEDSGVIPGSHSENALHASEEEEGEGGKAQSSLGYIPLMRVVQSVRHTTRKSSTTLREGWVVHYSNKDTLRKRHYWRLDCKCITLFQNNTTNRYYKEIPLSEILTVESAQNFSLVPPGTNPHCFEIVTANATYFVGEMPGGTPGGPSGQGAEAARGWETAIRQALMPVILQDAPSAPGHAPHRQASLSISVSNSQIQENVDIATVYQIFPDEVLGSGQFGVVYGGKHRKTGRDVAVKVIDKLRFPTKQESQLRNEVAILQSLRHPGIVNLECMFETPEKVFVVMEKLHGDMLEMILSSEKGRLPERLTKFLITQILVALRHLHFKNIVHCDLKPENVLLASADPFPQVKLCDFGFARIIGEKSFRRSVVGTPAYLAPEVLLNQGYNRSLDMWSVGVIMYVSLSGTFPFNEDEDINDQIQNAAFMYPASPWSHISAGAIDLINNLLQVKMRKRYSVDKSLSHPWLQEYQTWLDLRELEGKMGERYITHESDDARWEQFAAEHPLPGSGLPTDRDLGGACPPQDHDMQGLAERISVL

[8] = target: Mitogen-activated protein kinase 8 (Homo sapiens, UniProt P45983)
[9] = target: Dual specificity mitogen-activated protein kinase kinase 2 (Homo sapiens, UniProt P36507)
Also: in the data inactive means no Kd found up to 30 µM.

Cyclin-dependent kinase 12, sequence (Q9NYV4 whole entry): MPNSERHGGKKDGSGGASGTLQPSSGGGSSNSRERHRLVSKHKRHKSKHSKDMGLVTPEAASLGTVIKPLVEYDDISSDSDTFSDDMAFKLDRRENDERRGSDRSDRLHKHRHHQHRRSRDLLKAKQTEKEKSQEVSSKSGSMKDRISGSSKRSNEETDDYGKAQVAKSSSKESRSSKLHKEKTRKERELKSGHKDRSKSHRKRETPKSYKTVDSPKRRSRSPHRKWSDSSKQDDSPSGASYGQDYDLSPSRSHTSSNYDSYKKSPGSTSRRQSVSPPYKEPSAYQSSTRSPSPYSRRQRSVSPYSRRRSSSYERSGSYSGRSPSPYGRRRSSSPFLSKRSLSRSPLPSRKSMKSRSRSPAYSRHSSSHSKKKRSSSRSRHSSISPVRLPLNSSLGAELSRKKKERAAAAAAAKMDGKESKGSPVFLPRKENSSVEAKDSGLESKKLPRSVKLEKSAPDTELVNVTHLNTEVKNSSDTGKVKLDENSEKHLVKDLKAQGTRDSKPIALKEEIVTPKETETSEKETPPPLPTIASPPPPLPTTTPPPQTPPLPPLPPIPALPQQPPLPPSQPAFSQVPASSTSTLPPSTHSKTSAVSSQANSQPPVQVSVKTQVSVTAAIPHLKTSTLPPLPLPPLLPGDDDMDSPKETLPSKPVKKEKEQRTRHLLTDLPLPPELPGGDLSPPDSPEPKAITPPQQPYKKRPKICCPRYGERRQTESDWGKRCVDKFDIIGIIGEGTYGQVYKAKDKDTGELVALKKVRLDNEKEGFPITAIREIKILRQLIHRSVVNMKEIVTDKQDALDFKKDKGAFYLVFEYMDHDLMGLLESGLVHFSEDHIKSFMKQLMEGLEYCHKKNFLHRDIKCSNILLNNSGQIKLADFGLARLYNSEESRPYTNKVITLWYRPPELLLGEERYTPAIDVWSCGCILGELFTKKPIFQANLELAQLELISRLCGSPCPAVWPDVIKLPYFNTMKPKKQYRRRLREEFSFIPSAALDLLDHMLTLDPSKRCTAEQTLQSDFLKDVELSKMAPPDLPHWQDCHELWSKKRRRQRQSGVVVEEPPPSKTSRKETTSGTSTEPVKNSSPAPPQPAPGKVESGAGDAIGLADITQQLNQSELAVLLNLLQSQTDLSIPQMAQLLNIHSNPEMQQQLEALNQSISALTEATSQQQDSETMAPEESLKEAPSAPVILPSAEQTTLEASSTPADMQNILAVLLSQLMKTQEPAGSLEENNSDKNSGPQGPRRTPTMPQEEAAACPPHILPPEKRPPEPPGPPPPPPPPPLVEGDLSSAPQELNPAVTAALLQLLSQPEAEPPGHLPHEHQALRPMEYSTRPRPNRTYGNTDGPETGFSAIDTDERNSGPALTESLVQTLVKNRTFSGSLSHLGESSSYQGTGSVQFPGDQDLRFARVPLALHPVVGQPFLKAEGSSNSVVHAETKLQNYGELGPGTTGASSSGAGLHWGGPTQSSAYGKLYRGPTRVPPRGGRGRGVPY
Dual specificity mitogen-activated protein kinase kinase 2, sequence (P36507 whole entry): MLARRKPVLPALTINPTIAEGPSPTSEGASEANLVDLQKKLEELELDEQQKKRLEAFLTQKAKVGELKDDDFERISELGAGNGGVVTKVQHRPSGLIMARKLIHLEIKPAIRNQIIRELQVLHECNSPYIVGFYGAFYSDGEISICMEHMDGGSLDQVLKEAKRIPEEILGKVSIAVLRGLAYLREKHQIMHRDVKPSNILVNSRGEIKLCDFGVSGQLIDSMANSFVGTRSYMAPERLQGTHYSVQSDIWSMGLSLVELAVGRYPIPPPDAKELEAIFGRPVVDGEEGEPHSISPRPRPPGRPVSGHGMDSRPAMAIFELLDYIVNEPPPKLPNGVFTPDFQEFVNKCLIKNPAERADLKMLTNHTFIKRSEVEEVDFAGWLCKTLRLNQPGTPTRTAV
RAC-gamma serine/threonine-protein kinase, sequence (Q9Y243 whole entry): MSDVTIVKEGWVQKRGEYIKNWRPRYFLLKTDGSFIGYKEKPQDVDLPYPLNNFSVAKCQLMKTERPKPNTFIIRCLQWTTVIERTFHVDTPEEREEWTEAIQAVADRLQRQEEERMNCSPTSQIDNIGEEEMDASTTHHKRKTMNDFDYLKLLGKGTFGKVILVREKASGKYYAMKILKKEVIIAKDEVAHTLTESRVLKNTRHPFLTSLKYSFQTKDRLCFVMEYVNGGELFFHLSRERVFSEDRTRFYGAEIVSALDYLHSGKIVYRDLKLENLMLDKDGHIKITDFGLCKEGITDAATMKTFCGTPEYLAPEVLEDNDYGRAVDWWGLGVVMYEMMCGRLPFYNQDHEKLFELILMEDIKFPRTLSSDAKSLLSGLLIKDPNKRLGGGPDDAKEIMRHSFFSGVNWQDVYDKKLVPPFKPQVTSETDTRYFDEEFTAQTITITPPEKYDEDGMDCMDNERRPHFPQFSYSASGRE
Obg-like ATPase 1, sequence (Q9NTK5 whole entry, looked up): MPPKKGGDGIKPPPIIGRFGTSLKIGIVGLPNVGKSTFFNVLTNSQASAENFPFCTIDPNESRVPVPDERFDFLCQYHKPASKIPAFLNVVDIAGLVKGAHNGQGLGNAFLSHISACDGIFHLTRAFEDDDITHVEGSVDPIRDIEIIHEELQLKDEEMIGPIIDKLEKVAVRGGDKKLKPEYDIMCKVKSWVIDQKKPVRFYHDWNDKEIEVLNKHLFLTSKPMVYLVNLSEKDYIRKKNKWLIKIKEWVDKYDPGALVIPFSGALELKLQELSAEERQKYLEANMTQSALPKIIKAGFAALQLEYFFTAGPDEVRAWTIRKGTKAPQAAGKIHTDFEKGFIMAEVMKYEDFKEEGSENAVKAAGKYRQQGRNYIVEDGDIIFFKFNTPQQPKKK
Mitogen-activated protein kinase 3, sequence (P27361 whole entry): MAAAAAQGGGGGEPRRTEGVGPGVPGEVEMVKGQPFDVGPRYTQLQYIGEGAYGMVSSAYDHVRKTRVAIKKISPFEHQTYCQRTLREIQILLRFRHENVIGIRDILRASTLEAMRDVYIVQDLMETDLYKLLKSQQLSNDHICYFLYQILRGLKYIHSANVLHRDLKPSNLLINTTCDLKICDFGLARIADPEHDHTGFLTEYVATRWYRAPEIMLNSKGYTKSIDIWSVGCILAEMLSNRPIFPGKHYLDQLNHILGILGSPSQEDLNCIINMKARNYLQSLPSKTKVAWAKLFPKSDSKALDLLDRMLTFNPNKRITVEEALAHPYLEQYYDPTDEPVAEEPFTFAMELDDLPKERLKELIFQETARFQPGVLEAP
Mitogen-activated protein kinase 8, sequence (P45983 whole entry): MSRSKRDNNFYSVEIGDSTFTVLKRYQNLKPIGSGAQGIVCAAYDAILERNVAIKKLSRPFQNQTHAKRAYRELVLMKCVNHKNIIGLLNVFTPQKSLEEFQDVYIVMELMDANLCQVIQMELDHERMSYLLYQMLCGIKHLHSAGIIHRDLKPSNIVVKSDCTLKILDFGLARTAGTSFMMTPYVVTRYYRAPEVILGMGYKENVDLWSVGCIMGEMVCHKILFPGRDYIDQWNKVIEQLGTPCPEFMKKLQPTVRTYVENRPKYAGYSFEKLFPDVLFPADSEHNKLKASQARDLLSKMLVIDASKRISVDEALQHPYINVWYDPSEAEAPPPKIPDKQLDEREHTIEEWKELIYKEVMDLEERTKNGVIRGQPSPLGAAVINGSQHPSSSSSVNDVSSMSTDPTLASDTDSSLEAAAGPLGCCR
Mitogen-activated protein kinase 7, sequence (Q13164 whole entry): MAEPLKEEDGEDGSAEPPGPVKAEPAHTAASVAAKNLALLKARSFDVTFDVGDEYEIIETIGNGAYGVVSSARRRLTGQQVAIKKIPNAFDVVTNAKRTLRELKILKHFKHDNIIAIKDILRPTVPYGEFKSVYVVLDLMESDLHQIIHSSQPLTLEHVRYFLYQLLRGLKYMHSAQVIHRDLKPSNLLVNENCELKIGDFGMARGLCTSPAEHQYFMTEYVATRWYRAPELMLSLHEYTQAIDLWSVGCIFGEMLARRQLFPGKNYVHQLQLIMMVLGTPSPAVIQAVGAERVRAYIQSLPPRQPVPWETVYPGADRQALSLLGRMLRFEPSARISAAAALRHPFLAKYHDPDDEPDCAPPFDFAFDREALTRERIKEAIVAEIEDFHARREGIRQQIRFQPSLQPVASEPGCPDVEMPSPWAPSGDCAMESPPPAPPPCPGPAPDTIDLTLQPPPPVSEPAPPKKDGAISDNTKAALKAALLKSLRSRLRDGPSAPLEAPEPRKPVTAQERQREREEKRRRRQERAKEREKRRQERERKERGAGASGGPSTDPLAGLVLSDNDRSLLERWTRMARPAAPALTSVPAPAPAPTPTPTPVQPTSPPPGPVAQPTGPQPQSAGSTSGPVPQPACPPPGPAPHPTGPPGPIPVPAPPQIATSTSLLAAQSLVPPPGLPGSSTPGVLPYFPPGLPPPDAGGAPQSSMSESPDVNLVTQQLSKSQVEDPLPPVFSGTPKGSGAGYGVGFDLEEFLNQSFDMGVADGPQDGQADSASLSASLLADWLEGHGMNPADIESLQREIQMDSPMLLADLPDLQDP

Kd [1]	Kd [2]	Kd [3]	Kd [4]	Kd (Obg-like ATPase 1)	Kd [6]	Kd [7]	Kd [8]	Kd [9]	SMILES	Kd [5]
> 30 µM (inactive)	> 30 µM (inactive)	> 30 µM (inactive)	> 30 µM (inactive)	> 30 µM (inactive)	> 30 µM (inactive)	> 30 µM (inactive)			CCN(CCCOc1ccc2c(Nc3cc(CC(=O)Nc4cccc(F)c4)n[nH]3)ncnc2c1)CCOP(=O)(O)O [BARASERTIB]	> 30 µM (inactive)
> 30 µM (inactive)	> 30 µM (inactive)	> 30 µM (inactive)	> 30 µM (inactive)	> 30 µM (inactive)	> 30 µM (inactive)	> 30 µM (inactive)	> 30 µM (inactive)		O=C(NOC[C@H](O)CO)c1ccc(F)c(F)c1Nc1ccc(I)cc1F [MIRDAMETINIB]	> 30 µM (inactive)
		> 30 µM (inactive)	> 30 µM (inactive)	> 30 µM (inactive)					COc1cc2c(Oc3ccc4[nH]c(C)cc4c3F)ncnc2cc1OCCCN1CCCC1 [CEDIRANIB]	
		> 30 µM (inactive)		> 30 µM (inactive)					COc1cc2c(N3CCN(C(=O)Nc4ccc(OC(C)C)cc4)CC3)ncnc2cc1OCCCN1CCCCC1 [TANDUTINIB]	
> 30 µM (inactive)	> 30 µM (inactive)	> 30 µM (inactive)			> 30 µM (inactive)	2.06 µM (active)	3.76 µM (active)	> 30 µM (inactive)	CCN1CCN(Cc2ccc(Nc3ncc(F)c(-c4cc(F)c5nc(C)n(C(C)C)c5c4)n3)nc2)CC1 [ABEMACICLIB]	> 30 µM (inactive)
> 30 µM (inactive)		> 30 µM (inactive)			> 30 µM (inactive)	> 30 µM (inactive)	> 30 µM (inactive)	> 30 µM (inactive)	O=c1[nH]c([C@@H]2CCCN2)nc2c1oc1ccc(Cl)cc12	> 30 µM (inactive)
> 30 µM (inactive)	> 30 µM (inactive)	> 30 µM (inactive)			> 30 µM (inactive)	> 30 µM (inactive)	> 30 µM (inactive)	> 30 µM (inactive)	CC[C@@](C)(Nc1ccnc(-c2c[nH]c3ncccc23)n1)C(=O)NCC(F)(F)F [DECERNOTINIB]	> 30 µM (inactive)
		> 30 µM (inactive)	> 30 µM (inactive)	> 30 µM (inactive)					CC1(C)CNc2cc(NC(=O)c3cccnc3NCc3ccncc3)ccc21 [MOTESANIB]	
		> 30 µM (inactive)	> 30 µM (inactive)	> 30 µM (inactive)					Cn1cnc2c(F)c(Nc3ccc(Br)cc3Cl)c(C(=O)NOCCO)cc21 [SELUMETINIB]	
> 30 µM (inactive)		> 30 µM (inactive)	> 30 µM (inactive)		> 30 µM (inactive)		> 30 µM (inactive)		CC(C)(O)CC(=O)NCCn1ccc2ncnc(Nc3ccc(Oc4cccc(C(F)(F)F)c4)c(Cl)c3)c21 [TAK-285]	> 30 µM (inactive)
> 30 µM (inactive)	> 30 µM (inactive)	> 30 µM (inactive)			> 30 µM (inactive)	0.14 µM (active)	> 30 µM (inactive)	> 30 µM (inactive)	COc1cccc(Nc2ncnn3ccc(CN4CC[C@@H](N)[C@H](O)C4)c23)c1 [BMS-690514]	> 30 µM (inactive)
> 30 µM (inactive)	> 30 µM (inactive)	> 30 µM (inactive)			3.69 µM (active)	> 30 µM (inactive)		> 30 µM (inactive)	O[C@H]1CC[C@H](Nc2ncc3nc(Nc4c(F)cc(F)cc4F)n([C@H]4CCOC4)c3n2)CC1 [TANZISERTIB]	> 30 µM (inactive)
> 30 µM (inactive)		> 30 µM (inactive)	> 30 µM (inactive)	> 30 µM (inactive)					C[C@@]1(C(=O)Nc2ccc(F)nc2)CCCN1c1nc(Nc2cc(C3CC3)n[nH]2)c2cccn2n1 [BMS-754807]	
> 30 µM (inactive)	> 30 µM (inactive)	> 30 µM (inactive)	> 30 µM (inactive)	> 30 µM (inactive)	> 30 µM (inactive)	> 30 µM (inactive)			Cn1c(=O)n(-c2ccc(C(C)(C)C#N)cc2)c2c3cc(-c4cnc5ccccc5c4)ccc3ncc21 [DACTOLISIB]	> 30 µM (inactive)
		> 30 µM (inactive)	> 30 µM (inactive)	> 30 µM (inactive)					CN(C)C/C=C/C(=O)Nc1cc2c(Nc3ccc(F)c(Cl)c3)ncnc2cc1O[C@H]1CCOC1 [AFATINIB]	

SMILES	Kd [1]	Kd [2]	Kd [3]	Kd [4]	Kd (Obg-like ATPase 1)	Kd [6]	Kd [7]	Kd [8]	Kd [9]	Kd [5]
N#CCNC(=O)c1ccc(-c2ccnc(Nc3ccc(N4CCOCC4)cc3)n2)cc1 [MOMELOTINIB]	> 30 µM (inactive)	> 30 µM (inactive)	> 30 µM (inactive)	> 30 µM (inactive)	> 30 µM (inactive)	> 30 µM (inactive)	0.531 µM (active)			> 30 µM (inactive)
C=CCn1c(=O)c2cnc(Nc3ccc(N4CCN(C)CC4)cc3)nc2n1-c1cccc(C(C)(C)O)n1 [ADAVOSERTIB]	> 30 µM (inactive)	> 30 µM (inactive)	> 30 µM (inactive)	> 30 µM (inactive)	> 30 µM (inactive)	> 30 µM (inactive)	> 30 µM (inactive)			> 30 µM (inactive)
C[C@]1(O)C[C@@H](c2nc(-c3ccc4ccc(-c5ccccc5)nc4c3)c3c(N)nccn32)C1 [LINSITINIB]		> 30 µM (inactive)	> 30 µM (inactive)	> 30 µM (inactive)					1.14 µM (active)	> 30 µM (inactive)
O=S(=O)(c1cccc2cnccc12)N1CCCNCC1 [FASUDIL]		> 30 µM (inactive)	3.48 µM (active)	> 30 µM (inactive)	> 30 µM (inactive)	> 30 µM (inactive)	6.42 µM (active)			> 30 µM (inactive)
CN(c1ncccc1CNc1nc(Nc2ccc3c(c2)CC(=O)N3)ncc1C(F)(F)F)S(C)(=O)=O [PF-00562271]			> 30 µM (inactive)	> 30 µM (inactive)	> 30 µM (inactive)	> 30 µM (inactive)				1.47 µM
C=CCN(/C=C1/C(=O)O[C@H](COC)[C@@]2(C)C1=C(O)C(=O)C1=C2[C@H](OC(C)=O)C[C@]2(C)C(=O)CC[C@@H]12)CC=C [SONOLISIB]	> 30 µM (inactive)	> 30 µM (inactive)	> 30 µM (inactive)			> 30 µM (inactive)	> 30 µM (inactive)	> 30 µM (inactive)	> 30 µM (inactive)	> 30 µM (inactive)
